{"source": "paper PMC11742723", "about": "“The clinical-stage drug BTZ-043 accumulates in murine tuberculosis lesions and efficiently acts against Mycobacterium tuberculosis” (Nature Communications, 2025)", "tested_on": "Mtb", "assay_type": "cell-based, Mycobacterium tuberculosis", "data": [{"smiles": "C[C@H]1COC2(CCN(c3nc(=O)c4cc(C(F)(F)F)cc([N+](=O)[O-])c4s3)CC2)O1", "note": "[BTZ-043]", "values": [{"measurement": "effect on mycobacterial growth on agar containing BTZ-043", "setting": "1 ng/mL BTZ-043, bacteria from BTZ-043 treated BALB/c mice, untreated mice and H37Rv", "value": "did not restrict mycobacterial viability"}, {"measurement": "growth of Mtb from drug treated IL-13tg mice on agar containing BTZ-043", "setting": "5 or 10 ng/mL BTZ-043, IL-13tg mice 250 mg/kg/day 10 days", "value": "did not grow"}, {"measurement": "mycobacterial growth on agar containing BTZ-043", "setting": "5 or 10 ng/mL BTZ-043, bacteria from BTZ-043 treated BALB/c mice, untreated mice and H37Rv", "value": "No growth"}]}]}
